From US20080234236A1, “REDUCTION OF ADVERSE EVENTS AFTER PERCUTANEOUS INTERVENTION BY USE OF A THROMBIN RECEPTOR ANTAGONIST” (priority 2007, published 2008)

How the values were obtained:
[1] = in vivo
Description: The Phase 2 study was a randomized, double-blind, placebo-controlled, multicenter, dose-escalation study in men and women with symptoms of coronary heart disease undergoing nonurgent PCI.

human platelets = assay: TRAP stimulated human platelet aggregation; format: cell-based
Description: Schering-Plough Corp. is developing SCH 530348, which is a selective inhibitor of the primary thrombin receptor, PAR-1 (protease-activated receptor-1), on human platelets. […] Current clinical development of SCH 530348 is directed toward approval of a therapy that is adjunctive to current standard of care, e.g., the ADP antagonist clopidogrel and aspirin. However, an avoidance of bleeding risk by administration of an appropriate thrombin receptor antagonist as a monotherapy may have potential advantages over some of the currently approved antiplatelet drugs such as Plavix® (clopidogrel) and Ticlid® (ticolpidine) in certain situations such as PCI. Furthermore, the standard of care may evolve to encompass other ADP antagonists such as prasugrel. The treatment of PCI patients by administration of a thrombin receptor antagonist as adjunctive therapy to the standard of care encompasses future standards of care such as prasugrel, or any other ADP antagonist, and aspirin.

platelets [2] = assay: ADP-induced platelet aggregation; format: in vivo, humans; settings: loading and maintenance doses
Protocol: A pharmacodynamic substudy incorporating light aggregometry was performed under stringent physiologic conditions and read by a central core laboratory. […] The term “therpeutically effective amount of a thrombin receptor antagonist” will be understood to mean that quantity of the thrombin receptor antagonist sufficient to achieve at least 80% inhibition of TRAP mediated platelet aggregation.
Similarly, there is no effect on arachidonic acid (“AA”) -induced platelet aggregation (see FIGS. 16 and 17) or collagen-induced platelet aggregation (see FIGS. 18-21).

[3] = Phase 2 study (P03573): death, MACE and other clinical events in primary (PCI) cohort; format: in vivo, humans; settings: for Death/MACE, patients (%) / Death/MACE/Stroke, patients (%) / Death/MI, patients (%) / MACE, patients (%) / MI, patients (%) / Recurrent ischemia, patients (%) / Revascularization, patients (%) / Death, patients (%) / Stroke, patients (%): primary cohort (PCI); for Death/MACE, patients (%) / Death/MACE/Stroke, patients (%) / Death/MI, patients (%) / MACE, patients (%) / MI, patients (%) / Recurrent ischemia, patients (%) / Revascularization, patients (%): 60 days
Description: The behavior of SCH 530348 in humans was further studied in a Phase 2 clinical development program. A key safety issue for SCH 530348 is the potential for incremental bleeding when added to standard of care with other oral antiplatelet therapies as well as parenteral antithrombotics. Therefore, a single Phase 2 study (P03573) was completed to evaluate the safety of SCH 530348 in patients at high risk of bleeding events, i.e., those patients undergoing non-emergent PCI (percutaneous coronary intervention). The goals of this Phase 2 study were to: • Evaluate the safety of SCH 530348 in addition to standard of care with respect to TIMI major and minor bleeding; and, • Observe the effects of SCH 530348 on major adverse cardiac events (“MACE”) in patients successfully completing an interventional procedure.
The primary endpoint (directed to evaluating safety) was the combined […] (“TIMI”) major and TIMI minor bleeding over sixty days in the primary evaluable cohort. Though the study was not powered to evaluate efficacy, a secondary endpoint (directed to evaluating efficacy) was the incidence of the composite of death and major adverse cardiac events (“MACE”) in the primary cohort. MACE includes myocardial infarction, urgent revascularization, and ischemia requiring hospitalization. Pharmacokinetics and pharmacodynamics were assessed at selected sites across the treatment groups. Other secondary endpoints included the incidence of TIMI major and minor bleeding in the secondary evaluable cohort i.e., those individuals who received the loading dose only.
Although the Phase 2 study was neither designed nor powered to assess efficacy, i.e., reduction of clinical event rates, there was a 31% relative reduction observed in the composite of death and major adverse cardiac events (MACE) at sixty days in the SCH 530348 group (5.9%) versus placebo (8.6%) in the primary cohort. This difference was not statistically significant. All clinical events were adjudicated by a blinded Clinical Events Committee.

[4] = Pharmacokinetics: blood concentration of SCH 530348; format: in vivo, humans
Protocol: As the dose of SCH 530348 increased, the onset of platelet aggregation occurred at earlier sampling time points and maximum observed inhibition of aggregation increased, with 20 and 40 mg causing consistent maximum (>80%) inhibition of TRAP-induced platelet aggregation at 1-2 hours post dose. […] The duration of these pharmacodynamic effects is consistent with the drug's long elimination half-life.
This level of platelet inhibition is believed to be sufficient to lower the risks of adverse clinical events associated with PCI. […] The term “risk-abated PCI procedures” will be understood to mean those PCI procedures that are undertaken after the patient has achieved at least 80% platelet inhibition. This represents a marked improvement over the 4-6 hour period before risk-abated PCI can be performed using the current standard of care, i.e., clopidogrel and aspirin without a thrombin receptor antagonist.

platelets [5] = assay: Platelet activation (expression of P-selectin or CD40 ligand); design: species or system humans; settings: in vivo
[6] = primary cohort, 40 mg loading dose

CCOC(=O)N[C@@H]1CC[C@@H]2[C@@H](C1)C[C@H]1C(=O)O[C@H](C)[C@H]1[C@H]2/C=C/c1ccc(-c2cccc(F)c2)cn1.O=S(=O)(O)O [SCH 530348, ethyl [(1R,3aR,4aR,6R,8aR,9S,9aS)-9-[(E)-2-[5-(3-fluorophenyl)-2-pyridinyl]ethenyl]-dodecahydro-1-methyl-3-oxonaphtho[2,3-c]furan-6-yl] carbamate bisulfate]
Discontinuation of study drug for any adverse event, patients (%) [1]: 6%
Patients completing the sixty day treatment period (%) [1]: 84%
IC50 (human platelets): 0.015 µM
Effect on ADP-induced platelet aggregation (platelets [2]): no effect
Death/MACE, patients (%) ([3]; 10 mg loading dose): 8.5%
Death/MACE/Stroke, patients (%) ([3]; 10 mg loading dose): 9.3%
Death/MI, patients (%) ([3]; 10 mg loading dose): 5.4%
MACE, patients (%) ([3]; 10 mg loading dose): 8.5%
MI, patients (%) ([3]; 10 mg loading dose): 5.4%
Recurrent ischemia, patients (%) ([3]; 10 mg loading dose): 0.8%
Revascularization, patients (%) ([3]; 10 mg loading dose): 2.3%
Death/MACE, patients (%) ([3]; 20 mg loading dose): 5%
Death/MACE/Stroke, patients (%) ([3]; 20 mg loading dose): 5.0%
Death/MI, patients (%) ([3]; 20 mg loading dose): 4.2%
MACE, patients (%) ([3]; 20 mg loading dose): 5.0%
MI, patients (%) ([3]; 20 mg loading dose): 4.2%
Revascularization, patients (%) ([3]; 20 mg loading dose): 0.8%
Death/MACE, patients (%) ([3]; 40 mg loading dose): 4.6%
Death/MACE/Stroke, patients (%) ([3]; 40 mg loading dose): 4.6%
Death/MI, patients (%) ([3]; 40 mg loading dose): 4.0%
MACE, patients (%) ([3]; 40 mg loading dose): 4.0%
MI, patients (%) ([3]; 40 mg loading dose): 3.5%
Revascularization, patients (%) ([3]; 40 mg loading dose): 1.2%
Death/MACE, patients (%) ([3]; All SCH 530348): 5.9%
Death/MACE/Stroke, patients (%) ([3]; All SCH 530348): 6.2%
Death/MI, patients (%) ([3]; All SCH 530348): 4.5%
MACE, patients (%) ([3]; All SCH 530348): 5.7%
MI, patients (%) ([3]; All SCH 530348): 4.3%
Recurrent ischemia, patients (%) ([3]; All SCH 530348): 0.2%
Revascularization, patients (%) ([3]; All SCH 530348): 1.4%
Death, patients (%) ([3]; 10 mg loading dose): 0.8%
Stroke, patients (%) ([3]; 10 mg loading dose): 0.8%
Death, patients (%) ([3]; 40 mg loading dose): 0.6%
Death, patients (%) ([3]; All SCH 530348): 0.5%
Stroke, patients (%) ([3]; All SCH 530348): 0.2%
Reduction in MI versus placebo [3, 6]: 52%
Relative reduction in composite of death and MACE versus placebo [3, 6]: 47%
Relative reduction in composite of death and MACE at sixty days versus placebo ([3]; primary cohort, SCH 530348 group (all doses), not statistically significant): 31%
Time to peak blood concentration levels ([4]; 40 mg loading dose): in as little as one hour
Elimination half-life ([4]; in vivo): long
Platelet activation (expression of P-selectin or CD40 ligand) (platelets [5]): without activating platelets
